Results taken from the supplement of paper PMC8967900.

How the values were obtained:
Test in all cases: selective drug sensitivity score (sDSS, relative to normal bone marrow) (sDSS (score)); higher = more potent and effective on the cell line relative to normal bone marrow cells
Conditions in all cases: 72 h
[1] = test system: MN-60
[2] = test system: COG-LL-402h
[3] = test system: KOPN-8
[4] = test system: CCRF-HSB2
[5] = test system: ALL-SIL
[6] = test system: REH
[7] = test system: COG-LL-394h
[8] = test system: CCRF-CEM
[9] = test system: PF-382
[10] = test system: KASUMI-10
[11] = test system: RCH-ACV
[12] = test system: MHH-CALL-3
[13] = test system: JURKAT
[14] = test system: SUP-B15
[15] = test system: NALM-16
[16] = test system: 697
[17] = test system: SEM cells
[18] = test system: NALL-1
[19] = test system: P12-ICHIKAWA
[20] = test system: MOLT-16
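Further: ALL cell lines in 384-well plates, five doses spanning 10,000-fold, each plate scaled between vehicle and 100 µmol/L benzalkonium chloride controls, sDSS an adapted area-under-curve metric.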

| SMILES | selective drug sensitivity score [1] | selective drug sensitivity score [2] | selective drug sensitivity score [3] | selective drug sensitivity score [4] | selective drug sensitivity score [5] | selective drug sensitivity score [6] | selective drug sensitivity score [7] | selective drug sensitivity score [8] | selective drug sensitivity score [9] | selective drug sensitivity score [10] | selective drug sensitivity score [11] | selective drug sensitivity score [12] | selective drug sensitivity score [13] | selective drug sensitivity score [14] | selective drug sensitivity score [15] | selective drug sensitivity score [16] | selective drug sensitivity score [17] | selective drug sensitivity score [18] | selective drug sensitivity score [19] | selective drug sensitivity score [20] |
| --- | --- | --- | --- | --- | --- | --- | --- | --- | --- | --- | --- | --- | --- | --- | --- | --- | --- | --- | --- | --- |
| CNS(=O)(=O)Nc1nccc(Cc2c(C)c3ccc(Oc4ncccn4)cc3oc2=O)c1F (top concentration 1000 nM) | -1.18 | -1.18 | 2.42 | -1.18 | 0.42 | -0.38 | 1.12 | -1.18 | -0.18 | -1.18 | 0.42 | -1.18 | 0.92 | 10.1 | 0.72 | 0.02 | 1.82 | 2.22 | -0.98 | 1.42 |
| C[C@H]1Oc2cc(cnc2N)-c2c(nn(C)c2C#N)CN(C)C(=O)c2ccc(F)cc21 (top concentration 1000 nM) | -0.72 | -0.72 | 11.3 | -0.72 | -0.32 | -0.72 | -0.72 | -0.72 | -0.72 | -0.72 | 3.38 | -0.72 | -0.72 | -0.72 | -0.72 | -0.72 | -0.72 | -0.72 | -0.72 | -0.32 |
| CCc1cncnc1N1CCN(Cc2nc3cc(C(F)(F)F)ccc3[nH]2)CC1 (top concentration 10000 nM) | 1.96 | -0.84 | 8.36 | 4.16 | 1.76 | 6.26 | 4.56 | 0.36 | 2.96 | 2.76 | 6.46 | 2.46 | 7.36 | 3.46 | 0.06 | 4.16 | 9.76 | 8.66 | 3.66 | 4.86 |
| CN(C)CC#Cc1ccc(OCCCc2sc(N3CCc4cccc(C(=O)Nc5nc6ccccc6s5)c4C3)nc2C(=O)O)c(F)c1 (top concentration 10000 nM) | -3.64 | 26.4 | 3.46 | 17.1 | 37.6 | -1.84 | 17 | 32.8 | 24.4 | 11 | -1.54 | 19 | 10.9 | 13.6 | -1.24 | -2.04 | -0.24 | 3.46 | 39.3 | 0.56 |
| O=C(NC[C@H](O)CN1CCc2ccccc2C1)c1cc(NC2COC2)ncn1 (top concentration 10000 nM) | -0.06 | 0.34 | -0.06 | 1.64 | -0.06 | -0.06 | -0.06 | -0.06 | -0.06 | -0.06 | 1.24 | -0.06 | -0.06 | 1.54 | -0.06 | 0.84 | -0.06 | -0.06 | 0.24 | 1.54 |
| O=C1Cc2cc(C(=O)NC3C[C@H]4CC[C@@H](C3)N4S(=O)(=O)CC3CCN(CCCC(F)(F)F)CC3)c(Cl)cc2N1 (stereo not given in full) (top concentration 10000 nM) | 0 | 0 | 0 | 0 | 0 | 3.5 | 0 | 0 | 0 | 0 | 0 | 0 | 0 | 0 | 0 | 0 | 0 | 0.6 | 0 | 0 |
| CC/C(=C(\c1ccc(O)cc1)c1ccc(OCCN(C)C)cc1)c1ccccc1 [4-hydroxytamoxifen] (top concentration 10000 nM) | -2.08 | -3.48 | 3.22 | 1.82 | 1.22 | 4.02 | 2.12 | 1.52 | 2.52 | -1.78 | 0.72 | -2.58 | 2.02 | 0.92 | -2.88 | 1.32 | 1.62 | -1.78 | 2.02 | 3.02 |
| COCC1(CO)C(=O)C2CCN1CC2 (stereo not given) [APR-246] (top concentration 10000 nM) | -1.16 | -1.16 | 0.54 | -1.16 | -1.16 | -1.16 | -1.16 | -0.86 | -1.16 | -1.16 | -1.16 | 0.14 | -1.16 | 0.44 | 2.44 | 0.24 | -1.16 | -1.16 | -1.16 | 1.04 |
| Cc1sc2c(c1C)C(c1ccc(Cl)cc1)=N[C@@H](CC(=O)Nc1ccc(OCCOCCOCCOCCNc3cccc4c3C(=O)N(C3CCC(=O)NC3=O)C4=O)cc1)c1nnc(C)n1-2 (stereo not given in full) [ARV-825] (top concentration 300 nM) | -1.56 | 3.74 | 4.14 | 1.14 | -6.46 | -0.26 | -0.96 | -2.66 | 0.14 | 3.84 | 4.44 | 7.44 | -13.2 | 6.14 | 0.74 | 3.14 | 2.24 | -12.1 | -7.46 | 1.44 |
| COc1cc(OC2CCN(C)CC2)ccc1Nc1ncc2c(n1)n(C1CCCC1)c(=O)n2C [AZ3146] (top concentration 10000 nM) | -0.16 | -0.56 | 4.54 | 1.84 | 2.14 | 1.14 | 1.04 | 0.94 | -0.86 | 3.64 | 1.24 | -4.16 | 0.24 | 1.34 | -2.56 | 1.04 | 2.04 | -2.16 | 0.64 | 0.44 |
| CN(C)CCCOc1ccc(-c2ccc3ncc4c(c3c2)n(C2CCOCC2)c(=O)n4C)cn1 [AZD0156] (top concentration 1000 nM) | -0.06 | 3.34 | 2.04 | 0.94 | 1.84 | 0.84 | -0.06 | 1.74 | 0.64 | -0.06 | 7.24 | -0.06 | -0.06 | 1.14 | -0.06 | 1.04 | 1.14 | 2.54 | 0.14 | 0.54 |
| N#Cc1ccc2[nH]c(O)c(-c3ccc(CN4CCOCC4)cn3)c2c1 [AZD-1080] (top concentration 10000 nM) | -0.02 | 2.08 | 4.28 | 1.08 | -0.02 | 8.28 | -0.02 | -0.02 | -0.02 | 1.88 | 3.98 | 5.18 | -0.02 | 5.08 | 0.48 | 4.38 | 4.58 | -0.02 | -0.02 | 0.38 |
| CN(C)C/C=C/C(=O)Nc1cc2c(Nc3ccc(F)c(Cl)c3)ncnc2cc1O[C@H]1CCOC1 [Afatinib] (top concentration 1000 nM) | -0.84 | 0.46 | -0.74 | 1.96 | -0.84 | 5.46 | -0.84 | 0.66 | -0.84 | -0.84 | 1.26 | 3.96 | 0.16 | -0.84 | -0.84 | -0.34 | 0.96 | -0.84 | -0.74 | -0.34 |
| O=C(Nc1ccc(OC(F)(F)Cl)cc1)c1cnc(N2CC[C@@H](O)C2)c(-c2cc[nH]n2)c1 [Asciminib] (top concentration 1000 nM) | -1.98 | -1.98 | 11.4 | -1.98 | 31.2 | -1.98 | 4.52 | -1.98 | -1.78 | -1.98 | -1.98 | -0.98 | -0.58 | 26.2 | -1.98 | -1.18 | 5.72 | 3.62 | -1.98 | 8.42 |
| CC[C@@H]1C(=O)N(C)c2cnc(Nc3ccc(C(=O)NC4CCN(C)CC4)cc3OC)nc2N1C1CCCC1 [BI-2536] (top concentration 1000 nM) | -0.16 | 17.2 | 17 | 20.1 | 21.5 | 16.4 | 9.44 | 20.1 | 18.7 | 11.9 | 15.5 | 7.94 | 19.2 | 22.9 | 14.5 | 17.4 | 20.7 | -8.46 | 20.9 | 9.04 |
| Cc1ccc(NC(=O)c2ccc(CN3CC[C@H](N(C)C)C3)c(C(F)(F)F)c2)cc1Nc1nccc(-c2cncnc2)n1 [Bafetinib] (top concentration 1000 nM) | 4 | 0.5 | 3.1 | 9.9 | 34 | 0.2 | 3 | 0 | 0 | 0 | 0.4 | 0 | 0 | 21.9 | 0 | 0 | 0 | 0 | 0 | 0 |
| CC[C@H](NC(=O)[C@H](C)NC)C(=O)N1C[C@@H](O)C[C@H]1Cc1c(-c2[nH]c3cc(F)ccc3c2C[C@@H]2C[C@H](O)CN2C(=O)[C@H](CC)NC(=O)[C@H](C)NC)[nH]c2cc(F)ccc12 [Birinapant] (top concentration 1000 nM) | 1.4 | -5.1 | -5.1 | 5.7 | 8.7 | 1.1 | 16.2 | 1.4 | -4.6 | -4.9 | 3.1 | -5.1 | -4.9 | -3.7 | 0.5 | -5.1 | -5.1 | 6.9 | -5.1 | -1.7 |
| COc1cc2nccc(Oc3ccc(NC(=O)C4(C(=O)Nc5ccc(F)cc5)CC4)cc3)c2cc1OC [Cabozantinib] (top concentration 1000 nM) | -3.62 | -3.62 | 24.9 | 1.98 | 4.48 | 4.58 | 0.18 | -3.62 | -3.62 | 14.1 | -3.62 | -3.62 | -3.62 | 13.5 | 2.68 | -1.42 | 17.6 | -3.62 | -3.62 | -3.62 |
